{
  "source": "paper PMC4660270",
  "about": "(Structure (London, England : 1993), 2015)",
  "molecular_target": "TEAD4 (Homo sapiens, UniProt Q15561)",
  "sequence (Q15561 217-434)": "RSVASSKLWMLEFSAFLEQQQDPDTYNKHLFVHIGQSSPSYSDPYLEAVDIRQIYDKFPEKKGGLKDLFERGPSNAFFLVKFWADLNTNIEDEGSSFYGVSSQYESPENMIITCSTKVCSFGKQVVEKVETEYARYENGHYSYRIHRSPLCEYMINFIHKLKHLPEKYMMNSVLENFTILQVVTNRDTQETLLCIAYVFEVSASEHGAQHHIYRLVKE",
  "assay": "ITC",
  "assay_type": "binding",
  "data": [
    {"compound": "O=C(O)c1ccccc1Nc1cccc(C(F)(F)F)c1", "note": "[FA, flufenamic acid]", "values": [
      {"measurement": "Kd", "result": "~73", "unit": "µM"}
    ]}
  ]
}
